Consider 41 compounds from US20260103465A1, “GLYCOGEN SYNTHASE KINASE 3 INHIBITORS AND USES THEREOF” (The Broad Institute, Inc., priority 2023, published 2026).

Experiment [1] concerns the target T1, GSK3a (GST-full length GSK3a) (Homo sapiens, UniProt P49840).
T1 construct: GST-full length GSK3a [SignalChem G08-10G]; purchased SignalChem G08-10G
Put plainly: GSK3a TR-FRET kinase inhibition assay. The class given is biochemical. The method, then:
(§1) TR-FRET assay was performed in a white, 384 well, low volume, flat bottom plate (Grenier). After a 30 minute preincubation in assay buffer with the indicated concentration of compound, the kinase activity was initiated by the addition of the substrates. 1 nM GSK3a (GST-full length GSK3a [SignalChem G08-10G]) or 1 nM GSK3b (GST-full length GSK3b: [SignalChem G08-9G]) were then incubated at ambient temperature for 100 minutes in 10 μl of 50 mM Tris, pH 7.5, 20 mM MgCl2, 0.05 mM DTT, 100 μg/ml BSA and 1% DMSO, with 200 nM biotinylated peptide substrate (biotinylated and S645 phosphorylated glycogen synthase 631-650) and ATP (e.g., at 2 μM, 4 μM, 10 μM, 100 μM, or 1 mM). The kinase activity was quenched with 2 μl of 250 mM EDTA. A 10 μl volume of 40 nM Strepavidin-d2, 2 nM […] antibody in TR-FRET Detection Buffer (Invitrogen) was then added. After 60 min at room temperature the plate was read on Envision plate reader using Ex: 340 nm, Em: 615 nm and […]. The normalized 665/615 Signal ratio versus log compound concentration was analyzed by XLFIT to yield IC50 values.
(In TR-FRET formats the signal depends on donor and acceptor labels being close together.)

The target of experiment [2] is T2, GSK3b (GST-full length GSK3b) (Homo sapiens, UniProt P49841).
T2 construct: GST-full length GSK3b: [SignalChem G08-9G]; purchased SignalChem G08-9G
Nature of the experiment: GSK3b TR-FRET kinase inhibition assay. The class given is biochemical. The method, then: as §1

Where [3] appears, read: 1 mM ATP, Table 3, read-out: GSK3a TR-FRET 1 mM ATP Average IC50.
[4] abbreviates: 1 mM ATP, Table 3, read-out: GSK3b TR-FRET 1 mM ATP Average IC50.
Where [5] appears, read: 1 mM ATP, Table 5, read-out: GSK3α TR-FRET 1 mM ATP Average IC50.
Setting [6] is: 1 mM ATP, Table 5, read-out: GSK3β TR-FRET 1 mM ATP Average IC50.
Setting [7] is: 4 μM ATP, read-out: GSK3α TR-FRET 4 μM ATP GMean IC50.
Where [8] appears, read: 2 μM ATP, read-out: GSK3β TR-FRET 2 μM ATP GMean IC50.

SMILES strings stand for the structures. Read-outs that look alike come from different tables or passages of the source.

Broadly, the IC50 is the midpoint of a concentration-inhibition curve.

T1 sequence (P49840 whole entry): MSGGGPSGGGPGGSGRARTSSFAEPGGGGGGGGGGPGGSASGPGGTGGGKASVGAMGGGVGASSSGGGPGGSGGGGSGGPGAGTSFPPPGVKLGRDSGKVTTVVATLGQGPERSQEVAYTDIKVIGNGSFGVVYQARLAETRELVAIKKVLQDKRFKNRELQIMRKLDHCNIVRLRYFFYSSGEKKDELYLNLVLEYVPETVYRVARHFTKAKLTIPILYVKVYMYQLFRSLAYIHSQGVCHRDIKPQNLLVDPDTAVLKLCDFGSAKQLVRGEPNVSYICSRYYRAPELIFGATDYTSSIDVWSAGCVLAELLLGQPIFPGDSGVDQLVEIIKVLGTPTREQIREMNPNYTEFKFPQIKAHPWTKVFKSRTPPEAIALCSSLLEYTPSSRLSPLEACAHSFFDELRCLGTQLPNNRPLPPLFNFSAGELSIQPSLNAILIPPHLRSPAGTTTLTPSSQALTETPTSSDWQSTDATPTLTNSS
T2 sequence (P49841 whole entry): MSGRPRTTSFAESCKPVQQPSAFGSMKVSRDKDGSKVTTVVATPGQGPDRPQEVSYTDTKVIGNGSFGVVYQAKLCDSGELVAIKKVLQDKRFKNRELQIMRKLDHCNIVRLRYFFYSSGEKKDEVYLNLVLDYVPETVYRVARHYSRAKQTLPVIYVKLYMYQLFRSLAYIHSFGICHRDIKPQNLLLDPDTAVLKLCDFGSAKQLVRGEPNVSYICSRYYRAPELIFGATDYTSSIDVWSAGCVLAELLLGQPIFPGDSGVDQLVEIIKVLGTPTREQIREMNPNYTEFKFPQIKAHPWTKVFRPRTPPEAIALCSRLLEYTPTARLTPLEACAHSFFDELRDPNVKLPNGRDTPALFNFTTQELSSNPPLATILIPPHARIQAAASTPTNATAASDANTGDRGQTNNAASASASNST

As for `CC1(C)CC(=O)C2=C(C1)Nc1ncc(C(F)(F)F)cc1C2(C)c1cccc(S(C)(=O)=O)c1` (single isomer, unassigned) [Compound 157A], the IC50 lay within 1 to 5 µM in experiment [1] (setting [3]) and 0.1 to 1 µM in experiment [2] (setting [4]).

Turning to `CC1(C)CC(=O)C2=C(C1)Nc1ncc(F)c(C#N)c1C2(C)c1cccc(F)c1` (single isomer, unassigned) [618B], the IC50 in experiment [1] (setting [5]) and in experiment [2] (setting [6]) was 0.1 to 1 µM in each case.

With `CC1(C)CC(=O)C2=C(Nc3ncc(C(F)F)c(C#N)c3[C@]2(C)c2ccccc2)[C@H]1F` (single isomer, unassigned) [Compound 633A], the IC50 in experiment [1] (setting [5]) was in the range of 5 to 20 µM; in experiment [2] (setting [6]), 1 to 5 µM.

For `CC(C)Oc1cccc(C2(C)C3=C(CC(C)(C)CC3=O)Nc3ncc4c(cnn4C)c32)c1` (single isomer, unassigned) [645B], the IC50 in experiment [1] (setting [5]) was 5 to 20 µM; in experiment [2] (setting [6]) it was 1 to 5 µM.

In the case of `CCC1(c2ccccc2)C2=C(Nc3ncccc31)C(F)C(C)(C)CC2=O` (single isomer, unassigned) [Compound 1006B], the IC50 in experiment [1] (setting [7]) and in experiment [2] (setting [8]) was more than 5 µM in each case.

As for `CC1(C)CC(=O)C2=C(C1)Nc1ncccc1C2(C)c1cccc(-c2ccncc2N2CCOCC2)c1` (single isomer, unassigned) [Compound 164A], the half-maximal inhibitory concentration (IC50) in experiment [1] (setting [3]) and in experiment [2] (setting [4]) was 1 to 5 µM each time.

Consider `CC1(C)CC2=C(C(=O)N1)C(C)(c1cccc(S(C)(=O)=O)c1)c1cc(C(F)(F)F)cnc1N2` (single isomer, unassigned) [651B], for which the IC50 in experiment [1] (setting [5]) and in experiment [2] (setting [6]) was 0.1 to 1 µM each time.

Turning to `CCC1(c2cccc(-c3cn(C)nc3C)c2)C2=C(CC(C)(C)CC2=O)Nc2ncccc21` (single isomer, unassigned) [Compound 1023B], the IC50 in experiment [1] (setting [7]) fell in the range of 0.1 to 1 µM; in experiment [2] (setting [8]), 1 to 5 µM.

As to `CC1(C)CC(=O)C2=C(C1)Nc1ncc(F)c(C#N)c1C2(C)c1cccc(-c2ccncc2CC(F)(F)F)c1` (single isomer, unassigned) [656A], the IC50 in experiment [1] (setting [5]) and in experiment [2] (setting [6]) was 0.1 to 1 µM each time.

`CC1(C)CC2=C(C(=O)N1)C(C)(c1cccc(S(C)(=O)=O)c1)c1cc(C3CC3)cnc1N2` (single isomer, unassigned) [647A]: the IC50 in experiment [1] (setting [5]) and in experiment [2] (setting [6]) was 0.1 to 1 µM throughout.

On to `CC1(C)CC2=C(C(=O)N1)C(C)(c1cccc(S(C)(=O)=O)c1)c1cccnc1N2` (single isomer, unassigned) [630A], for which the values for the IC50 in experiment [1] (setting [5]) and in experiment [2] (setting [6]) were not above 0.1 µM and 0.1 to 1 µM, respectively.

In the case of `CC1(C)CC(=O)C2=C(C1)Nc1ncc(F)c(C3CC3)c1C2(C)c1ccccc1` (single isomer, unassigned) [Compound 125B], the concentration for half-maximal inhibition (IC50) in experiment [1] (setting [3]) and in experiment [2] (setting [4]) was 1 to 5 µM each time.

`CC1(C)CC(=O)C2=C(C1)Nc1ncc(F)c(C#N)c1C2(C)c1cccc(F)c1` (single isomer, unassigned) [618A]: the IC50 in experiment [1] (setting [5]) and in experiment [2] (setting [6]) was 5 to 20 µM in each case.

With `CC1(C)CC(=O)C2=C(C1)Nc1ncc(C#N)c(C#N)c1C2(C)c1ccccc1` (single isomer, unassigned) [605A], the IC50 in experiment [1] (setting [5]) and in experiment [2] (setting [6]) was 0.1 to 1 µM each time.

On to `CC1(C)CC(=O)C2=C(C1)Nc1ncc(C(C)(C)C)cc1C2(C)c1ccccc1` (single isomer, unassigned) [Compound 124B], for which the IC50 in experiment [1] (setting [3]) and in experiment [2] (setting [4]) was 5 to 20 µM throughout.

On to `CC1(C)CC(=O)C2=C(C1)Nc1ncc(C(F)(F)F)c(C#N)c1C2(C)c1ccccc1` (single isomer, unassigned) [Compound 137A], for which the IC50 in experiment [1] (setting [3]) was in the range of 1 to 5 µM; in experiment [2] (setting [4]), 0.1 to 1 µM.

Turning to `CCC1(c2ccccc2)C2=C(CC(C)(C)CC2=O)Nc2ncc(F)cc21` (single isomer, unassigned) [114 A], the IC50 is not above 0.1 µM in experiment [1] (setting [7]); 0.1 to 1 µM in experiment [1] (1 mM ATP, Table 4, read-out: GSK3α TR-FRET 1 mM ATP GMean IC50); not above 0.1 µM in experiment [2] (setting [8]); 1 to 5 µM in experiment [2] (1 mM ATP, Table 4, read-out: GSK3β TR-FRET 1 mM ATP GMean IC50).

On to `C=Cc1c(C(F)(F)F)cnc2c1C(C)(c1ccccc1)C1=C(CC(C)(C)CC1=O)N2` (single isomer, unassigned) [636B], for which the IC50 was in the range of 5 to 20 µM in experiment [1] (setting [5]) and 1 to 5 µM in experiment [2] (setting [6]).

Regarding `CC(C)n1cncc1-c1cccc(C2(C)C3=C(CC(C)(C)CC3=O)Nc3ncc(C(F)(F)F)cc32)c1` (single isomer, unassigned) [Compound 171B], the IC50 was 1 to 5 µM in experiment [1] (setting [3]) and 0.1 to 1 µM in experiment [2] (setting [4]).

On to `CC1(C)CC(=O)C2=C(C1)Nc1ncc3c(c1C2(C)c1ccccc1)CCC3` (single isomer, unassigned) [Compound 118B], for which the IC50 in experiment [1] (setting [3]) and in experiment [2] (setting [4]) was 1 to 5 µM each time.

Consider `COc1cnc2c(c1C1CC1)C(C)(c1ccccc1)C1=C(CC(C)(C)CC1=O)N2` (single isomer, unassigned) [626A], for which the IC50 in experiment [1] (setting [5]) and in experiment [2] (setting [6]) was 5 to 20 µM each time.

Take `CC(C)Oc1cccc(C2(C)C3=C(CC(C)(C)CC3=O)Nc3ncc4c(cnn4C)c32)c1` (single isomer, unassigned) [645A]: the IC50 in experiment [1] (setting [5]) and in experiment [2] (setting [6]) was 5 to 20 µM throughout.

Take `CC1(C)CC(=O)C2=C(Nc3ncc(C(F)F)c(C#N)c3[C@@]2(C)c2ccccc2)[C@H]1F` (single isomer, unassigned) [Compound 633D]: the IC50 in experiment [1] (setting [5]) lay in the range of 1 to 5 µM; in experiment [2] (setting [6]) it was 0.1 to 1 µM.

Take `CC(C)Oc1cccc(C2(C)C3=C(CC(C)(C)CC3=O)Nc3ncc(F)cc32)c1` (single isomer, unassigned) [629B]: the IC50 in experiment [1] (setting [5]) and in experiment [2] (setting [6]) was 0.1 to 1 µM in each case.

As to `CCC1(c2cccc(-c3ccncc3OC)c2)C2=C(CC(C)(C)CC2=O)Nc2ncccc21` (single isomer, unassigned) [Compound 1028A], the IC50 in experiment [1] (setting [7]) was 1 to 5 µM; in experiment [2] (setting [8]) it was more than 5 µM.

Turning to `CN1C(=O)C2=C(CC1(C)C)Nc1ncc(F)c(C#N)c1C2(C)c1ccccc1` (single isomer, unassigned) [615A], the IC50 in experiment [1] (setting [5]) and in experiment [2] (setting [6]) was 1 to 5 µM in each case.

Turning to `CC1(C)CC(=O)C2=C(C1)Nc1ncc(F)cc1C2(C)c1ccccc1` (single isomer, unassigned) [Compound 107A], in experiment [2] (setting [4]), the IC50 was 5 to 20 µM.

Turning to `Cc1c(C2(C)C3=C(CC(C)(C)CC3=O)Nc3ncc(F)cc32)cccc1S(C)(=O)=O` (single isomer, unassigned) [643B], in experiment [1] (setting [5]), the IC50 was 5 to 20 µM.

Consider `C=Cc1cnc2c(c1Br)C(C)(c1ccccc1)C1=C(CC(C)(C)CC1=O)N2` (single isomer, unassigned) [640A], for which the IC50 in experiment [2] (setting [6]) lay within 5 to 20 µM.

Take `CC(=O)c1cnc2c(c1C#N)C(C)(c1ccccc1)C1=C(CC(C)(C)CC1=O)N2` (single isomer, unassigned) [621B]: in experiment [2] (setting [6]), the IC50 was in the range of 5 to 20 µM.

Regarding `CC1(C)CC(=O)C2=C(C1)Nc1nccc(C#N)c1C2(C)c1ccccc1` (single isomer, unassigned) [Compound 108B], the IC50 in experiment [1] (setting [3]) is 5 to 20 µM.

In the case of `CC1(C)CC2=C(C(=O)N1)C(C)(c1ccccc1)c1cc(C(F)(F)F)cnc1N2` (single isomer, unassigned) [625B], in experiment [1] (setting [5]), the 50% inhibitory concentration (IC50) was in the range of 5 to 20 µM.

`COc1cnc2c(c1C#N)C(C)(c1ccccc1)C1=C(CC(C)(C)CC1=O)N2` (single isomer, unassigned) [612A]: the IC50 in experiment [2] (setting [6]) fell in the range of 5 to 20 µM.

Take `CC1(C)CC(=O)C2=C(C1)Nc1ncc3c(c1C2(C)c1ccccc1)CCC3` (single isomer, unassigned) [Compound 118A]: the IC50 in experiment [2] (setting [4]) lay in the range of 5 to 20 µM.

On to `CC1(C)CC2=C(C(=O)N1)C(C)(c1cccc(S(C)(=O)=O)c1)c1cccnc1N2` (single isomer, unassigned) [630B], for which the IC50 in experiment [1] (setting [5]) fell in the range of 5 to 20 µM.

As to `COc1cnc2c(c1)C(C)(c1ccccc1)C1=C(CC(C)(C)CC1=O)N2` (single isomer, unassigned) [602B], the IC50 in experiment [2] (setting [6]) lay in the range of 5 to 20 µM.

For `CC1(C)CC(=O)C2=C(C1)Nc1nccc(F)c1C2(C)c1ccccc1` (single isomer, unassigned) [Compound 105A], the IC50 in experiment [2] (setting [4]) fell in the range of 5 to 20 µM.

Take `CC1(C)CC(=O)C2=C(C1)Nc1ncc(F)c(F)c1C2(C)c1ccccc1` (single isomer, unassigned) [Compound 116A]: in experiment [1] (setting [3]), the IC50 lay in the range of 5 to 20 µM.

In the case of `CC1(C)CC(=O)C2=C(C1)Nc1ncc(F)cc1C2(C)c1cccc(C(F)F)c1` (single isomer, unassigned) [623A], in experiment [1] (setting [5]), the IC50 lay in the range of 5 to 20 µM.

Consider `CC(C)c1cnc2c(c1C#N)C(C)(c1ccccc1)C1=C(CC(C)(C)CC1=O)N2` (single isomer, unassigned) [622A], for which the IC50 in experiment [2] (setting [6]) was 5 to 20 µM.

Regarding `CC(C)Oc1cccc(C2(C)C3=C(CC(C)(C)CC3=O)Nc3ncc(F)cc32)c1` (single isomer, unassigned) [629A], the half-inhibitory concentration (IC50) in experiment [2] (setting [6]) was in the range of 5 to 20 µM.
